Converted amounts (≈) assume the structure as drawn.
Legend:
[1] = tested on: Coxsackie-virus B1; assay: Cytopathic effect (CPE) inhibition assay; type: cell-based, Coxsackievirus B1; conditions: Enterovirus B, HeLa37, 48 h; Table 3; HeLa, 37° C., 2 days; read-out: EC50 Coxsackie-virus B1
[2] = tested on: Coxsackie-virus B3; assay: Cytopathic effect (CPE) inhibition assay; type: cell-based, Coxsackievirus B3; conditions: Enterovirus B, HeLa37, 48 h; Table 3; HeLa, 37° C., 2 days; read-out: EC50 Coxsackie-virus B3
[3] = tested on: Coxsackie-virus A24 (HG); assay: Cytopathic effect (CPE) inhibition assay; type: cell-based, Coxsackievirus A24; conditions: Enterovirus C, MRC5, 48 h; Table 3; MRC-5, 37° C., 2 days
[4] = tested on: Polio-virus 3; assay: microbe, parasite or virus in culture; type: cell-based, Poliovirus 3; conditions: Enterovirus C, HeLa37, 48 h, read-out: EC50 Polio-virus 3
[5] = tested on: Entero-virus 70; assay: Cytopathic effect (CPE) inhibition assay; type: cell-based, Enterovirus 70; conditions: Enterovirus D, MRC5, 48 h; Table 3; MRC-5, 37° C., 2 days
[6] = Cytotoxicity (CC50), MTS-based multicycle CPE reduction assay, Experimental Example 2; type: cell-based; conditions: Table 5
Method: (§1) The test compounds were evaluated for anti-picornavirus activity by a multicycle cytopathic effect (CPE) reduction assay. The antiviral activity was initially determined using an MTS [3-(4,5-dimethylthiazol-2-yl)-5-(3-carboxymethoxyphenyl)-2-(4-sulfophenyl)-2H-tetrazolium]-based CPE reduction assay.
(§2) In this regard, cells grown to confluence in 96-well plates were infected with 100 50% cell culture infective doses (CCID50) of virus. After an adsorption period of 2 hrs at 37° C., virus was removed and serial dilutions of the compounds were added. […] After removal of the medium, 90 μl of a culture medium and 10 μl of MTS-phenazine methosulfate (Promega, Leiden, The Netherlands) were added to each well. After an incubation period of 2 hrs at 37° C., the optical density (OD) of each well was read at 498 nm in a microplate reader.
(§3) CPE values for evaluating cytotoxicity were calculated using the following Mathmatic Formula 4: […]
(§4) The 50% effective concentration (EC50) and the 50 cytotoxic concentration (CC50) were defined as the concentrations of compound that offered 50% protection against virus-induced CPE and that killed cells by 50%, respectively, and were calculated using logarithmic interpolation.

[7] = tested on: uninfected cell cultures; assay: as above; type: cell-based
Method: as §1, §2, §3, §4

[8] = tested on: Coxsackie B3; assay: Multicycle CPE reduction assay; type: cell-based, Coxsackievirus B3; conditions: Enterovirus B, 37° C. in Vero cells
Method: as §1, §2
(§5) CPE values for evaluating antiviral activity were calculated using the following Mathmatic Formula 3: […]
as §4

[9] = tested on: Coxsackie A16; assay: Multicycle CPE reduction assay; type: cell-based, Coxsackievirus A16; conditions: Enterovirus A, A16, MRC5; 37° C. in MRC-5 cells
Method: as §1, §2, §5, §4

[10] = tested on: Coxsackie A21; assay: Multicycle CPE reduction assay; type: cell-based, Coxsackievirus A21; conditions: Enterovirus C, A21, MRC5, read-out: Coxsackie A21 EC50
[11] = tested on: Entero 71; assay: Multicycle CPE reduction assay; type: cell-based, enterovirus 71; conditions: Enterovirus A; 37° C. in RD cells
Method: as §1, §2, §5, §4

[12] = tested on: Echo 9; assay: Multicycle CPE reduction assay; type: cell-based, echovirus 9; conditions: Enterovirus B, MRC5; 37° C. in MRC-5 cells
Method: as §1, §2, §5, §4

[13] = tested on: Echo 11; assay: Multicycle CPE reduction assay; type: cell-based, echovirus 11; conditions: Enterovirus B; 37° C. in BGM cells
Method: as §1, §2, §5, §4

[14] = tested on: Polio 1; assay: microbe, parasite or virus in culture; type: cell-based, poliovirus 1; conditions: Enterovirus C, BGM, read-out: Polio 1 EC50
[15] = tested on: Polio 3; assay: microbe, parasite or virus in culture; type: cell-based, poliovirus 3; conditions: Enterovirus C, BGM, read-out: Polio 3 EC50
[16] = tested on: Rhino 2; assay: Multicycle CPE reduction assay; type: cell-based, rhinovirus 2; conditions: Enterovirus; 37° C. in HeLa cells
Method: as §1, §2, §5, §4

[17] = tested on: Rhino 9; assay: Multicycle CPE reduction assay; type: cell-based, rhinovirus 9; conditions: Enterovirus; 37° C. in HeLa cells
Method: as §1, §2, §5, §4

[18] = tested on: Rhino 15; assay: Multicycle CPE reduction assay; type: cell-based, rhinovirus 15; conditions: Enterovirus; 37° C. in HeLa cells
Method: as §1, §2, §5, §4

[19] = tested on: Rhino 29; assay: Multicycle CPE reduction assay; type: cell-based, rhinovirus 29; conditions: Enterovirus; 37° C. in HeLa cells
Method: as §1, §2, §5, §4

[20] = tested on: Rhino 39; assay: Multicycle CPE reduction assay; type: cell-based, rhinovirus 39; conditions: Enterovirus; 37° C. in HeLa cells
Method: as §1, §2, §5, §4

[21] = tested on: Rhino 41; assay: Multicycle CPE reduction assay; type: cell-based, rhinovirus 41; conditions: Enterovirus; 37° C. in HeLa cells
Method: as §1, §2, §5, §4

[22] = tested on: Rhino 45; assay: Multicycle CPE reduction assay; type: cell-based, rhinovirus 45; conditions: Enterovirus, HeLa, 37° C. in HeLa cells
Method: as §1, §2, §5, §4

[23] = tested on: Rhino 63; assay: Multicycle CPE reduction assay; type: cell-based, rhinovirus 63; conditions: Enterovirus; 37° C. in HeLa cells
Method: as §1, §2, §5, §4

[24] = tested on: Rhino 85; assay: Multicycle CPE reduction assay; type: cell-based, rhinovirus 85; conditions: Enterovirus; 37° C. in HeLa cells
Method: as §1, §2, §5, §4

[25] = tested on: Rhino 89; assay: Multicycle CPE reduction assay; type: cell-based, rhinovirus 89; conditions: Enterovirus; 37° C. in HeLa cells
Method: as §1, §2, §5, §4

[26] = tested on: Rhino 14; assay: Multicycle CPE reduction assay; type: cell-based, rhinovirus 14; conditions: Enterovirus; 37° C. in HeLa cells
Method: as §1, §2, §5, §4

[27] = tested on: Rhino 42; assay: Multicycle CPE reduction assay; type: cell-based, rhinovirus 42; conditions: Enterovirus; 37° C. in HeLa cells
Method: as §1, §2, §5, §4

[28] = tested on: Rhino 70; assay: Multicycle CPE reduction assay; type: cell-based, rhinovirus 70; conditions: Enterovirus, HeLa, read-out: Rhino 70 EC50, 37° C. in HeLa cells
Method: as §1, §2, §5, §4

[29] = tested on: Rhino 72; assay: Multicycle CPE reduction assay; type: cell-based, rhinovirus 72; conditions: Enterovirus; 37° C. in HeLa cells
Method: as §1, §2, §5, §4

[30] = tested on: Rhino 86; assay: Multicycle CPE reduction assay; type: cell-based, rhinovirus 86; conditions: Enterovirus; 37° C. in HeLa cells
Method: as §1, §2, §5, §4

[31] = tested on: coxsackieviruses B3, A16, A9, and A21; assay: Multicycle CPE reduction assay, text summary; type: cell-based; conditions: Table 5; read-out: EC50 against coxsackieviruses B3, A16, A9, and A21
Method: as §1, §2, §5, §4

[32] = in vitro; conditions: human, CC50
[33] = tested on: Rhino 59; assay: Multicycle CPE reduction assay; type: cell-based, rhinovirus 59; conditions: Enterovirus; 37° C. in HeLa cells

Structure (SMILES) | CC50 at 3 days [6] [µM] | EC50 [9] [µM] | EC50 [10] [µM] | EC50 [11] [µM] | EC50 [12] [µM] | EC50 [13] [µM] | EC50 [14] [µM] | EC50 [16] [µM] | EC50 [17] [µM] | EC50 [18] [µM] | EC50 [19] [µM] | EC50 [20] [µM] | EC50 [21] [µM] | EC50 [22] [µM] | EC50 [23] [µM] | EC50 [24] [µM] | EC50 [25] [µM] | EC50 [26] [µM] | EC50 [27] [µM] | EC50 [28] [µM] | other results
CC(=O)Oc1cc(C(C)C)ccc1C1(OC(C)=O)C(=O)c2ccccc2C1=O [Example 19, Acetic acid 2-(2-acetoxy-4-isopropyl-phenyl)-1,3-dioxo-indan-2-yl ester] | ≥ 100 | 0.064 ± 0.01 | 0.67 ± 0.13 | 0.1 ± 0.0018 | 0.017 ± 0.0067 | 0.017 ± 0.0078 | 0.79 ± 0.36 | > 50 | > 50 | > 50 | > 50 | > 50 | > 50 | 4.6 ± 0.0083 | > 50 | > 50 | > 50 | 0.45 ± 0.41 | > 50 | 2 ± 0.12 | EC50 [1]: < 0.01 µg/mL; EC50 [2]: < 0.01 µg/mL; EC50 [3]: < 1 µg/mL; EC50 [4]: < 1 µg/mL; EC50 [5]: < 0.01 µg/mL; CC50 ([7]; Table 5, listed as Ex. 19): > 100 µM; EC50 [8]: < 0.01 µM; EC50 [15]: < 1 µM; EC50 [29]: 4.6 ± 0.092 µM; EC50 [30]: 26 ± 18 µM; EC50 [31]: 0.01 µM; melting point: 136 to 137 °C; CC50 [32]: 17.7 µg/mL (≈ 46.5 µM)
CC(=O)Oc1cc(C)ccc1C1(OC(C)=O)C(=O)c2ccccc2C1=O [Example 74, 2-2-Acetoxy-1,3-dioxo-2,3-dihydro-1H-inden-2-yl] | ≥ 100 | 13 ± 0.32 | 26 ± 0.34 | 3.3 ± 1.6 | 0.61 ± 0.038 | 0.7 ± 0.24 | 20 ± 14 | > 50 | > 50 | > 50 | > 50 | > 50 | > 50 | > 50 | > 50 | > 50 | > 50 | > 50 | > 50 | > 50 | CC50 ([7]; Table 5, listed as Ex. 74): > 100 µM; EC50 [33]: > 50 µM; EC50 [29]: > 50 µM; EC50 [30]: 26 ± 18 µM; melting point: 145 to 147 °C

Source: patent US9833423B2 (KOREA RESEARCH INSTITUTE OF CHEMICAL TECHNOLOGY, priority 2011, dated 2017)
